According to US7432056B2, “Biallelic markers derived from genomic regions carrying genes involved in arachidonic acid metabolism” (Serono Genetics Institute S.A., priority 1999, dated 2008):

Experiment: Hepatotoxicity monitored by serum alanine aminotransferase (ALT) level in a clinical study of zileuton
Format: in vivo, human
Description: In another preferred embodiment, the trait considered was a side effect upon drug treatment; the study involved two populations derived from a clinical study of the anti-asthmatic drug zileuton. The case population was composed of asthmatic individuals treated with Zileuton showing zileuton-associated hepatotoxicity monitored by the serum level of alanine aminotransferase (ALT) and the control population was composed of asthmatic individuals treated with zileuton and having no increased serum level of ALT. Inclusion criteria and association between the biallelic markers of the present invention and zileuton-associated hepatotoxicity are further described below in IV.E. Association of Biallelic Markers of the Invention with Hepatoxicity to Anti-Asthma Drug Zileuton and in Example 5, Association between Side Effects upon Treatment with the Anti-Asthmatic Drug Zileuton (Zyflo™) and the Biallelic Markers of the 12-lipoxygenase Gene.
Zileuton (Zyflo™) is an active inhibitor of 5-lipoxygenase, the enzyme that catalyzes the formation of leukotrienes from arachidonic acid, indicated for prophylaxis and chronic treatment of asthma. […] The ALT test (serum level of alanine aminotransferase) was used, which is considered the most sensitive indicator of liver injury.
The side effect examined in this study was the hepatotoxicity experienced by asthmatic individuals as a result of their treatment with Zileuton as part of a clinical study. […] Hepatotoxicity was monitored by measuring the serum levels of alanine aminotransferase (ALT), which is a sensitive indicator of liver cell damage.
As mentioned above, an association study is more informative if the case-control populations present extreme phenotypes. Therefore, the asthmatic individuals, which were selected for the side effect positive trait (ALT+), corresponded to 89 individuals that presented at least 3 times the upper limit of normal (ULN) level of ALT. On the other side, the asthmatic individuals that were selected for the side effect negative trait (ALT−) corresponded to 208 individuals that presented less than 1×ULN of ALT. ALT+ and ALT− populations corresponded to 4% and 35% respectively of the total asthmatic individuals that participated in this study.

In the case of `CC(c1cc2ccccc2s1)N(O)C(N)=O` (stereo not shown) [Zileuton], the “asthmatic individuals that did not experience Zileuton-associated ALT increase compared to ALT levels prior to zileuton intake” value (asthmatic individuals treated with zileuton in a clinical study, serum ALT) is reported as “More than 90%”, the “ALT+ population (at least 3 times the upper limit of normal level of ALT) as share of total asthmatic individuals in the study” value (asthmatic individuals treated with zileuton, 89 individuals) is reported as 4% and the “ALT- population (less than 1xULN of ALT) as share of total asthmatic individuals in the study” value (asthmatic individuals treated with zileuton, 208 individuals) is reported as 35%. For the same molecule, the “liver function abnormalities in zileuton-treated patients” value (elevations of liver function tests during treatment, ALT test) was “A minority of zileuton-treated patients develop liver function abnormalities”.
